Results reported in publication PMC8666671, “Fine-tuning spermidine binding modes in the putrescine binding protein PotF” (The Journal of Biological Chemistry, 2021).
Residue numbers refer to the chain shown, from its start. Several values for one entry are separate records, joined by “and”; a condition that tells them apart may be missing. Identical values can stand only once.

Tests used:
PotF_Prox = target: T1, PotF_Prox (Escherichia coli, UniProt P31133, D247S/D39E/S38T); assay: ITC, PotF_Prox (S38T, D39E, D247S); format: binding; settings: 293 K, 50 mM Tris pH 8, 300 mM NaCl, biological triplicates
T1 construct: without the N-terminal signal peptide; made in house; host or cells: E. coli BL21 (DE3)
T1 sequence (P31133 27-370 S38T/D39E/D247S): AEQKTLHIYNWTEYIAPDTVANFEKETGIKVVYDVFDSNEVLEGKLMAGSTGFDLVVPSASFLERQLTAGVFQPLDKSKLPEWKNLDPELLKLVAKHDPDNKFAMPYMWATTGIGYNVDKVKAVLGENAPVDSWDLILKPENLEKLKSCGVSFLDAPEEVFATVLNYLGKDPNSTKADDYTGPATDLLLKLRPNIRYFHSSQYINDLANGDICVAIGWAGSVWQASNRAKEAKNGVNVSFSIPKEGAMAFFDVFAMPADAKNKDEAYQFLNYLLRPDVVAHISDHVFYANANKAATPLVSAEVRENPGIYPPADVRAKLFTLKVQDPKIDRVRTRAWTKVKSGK
Description: (§1) Ligands were always freshly prepared in the exact same buffer as was used for the size exclusion run. Samples were degassed, and temperature was equilibrated using a degassing station (TA Instruments). About 400 μl protein sample of different concentrations (Table S5) depending on affinity was transferred into the sample cell of a nanoITC (TA Instruments), and 50 μl of about tenfold concentrated ligand solution was loaded into the injection needle. Multiple injection measurements were carried out at 293 K, 300 rpm stirring rate, and 250 s spacings between each 2 μl injection. The heat quantity past injection was determined by integration of the measured peaks. Every protein–ligand combination was measured as biological triplicate. Subtraction of heat of dilution measurements, peak integration, and one site binding fits were done with NanoAnalyze (TA Instruments). Reported errors are the errors between fits of the measured triplicates.

PotF/D = target: T2, PotF/D (Escherichia coli, UniProt P31133, A182D/D247S/D39E/F276W/L348Q/S38T/S87Y); assay: ITC, PotF/D (PotF_SPD; seven PotD binding pocket residues grafted onto PotF); settings: 293 K
T2 construct: without the N-terminal signal peptide; made in house; host or cells: E. coli BL21 (DE3)
T2 sequence (P31133 27-370 S38T/D39E/S87Y/A182D/D247S/F276W/L348Q): T1 sequence (P31133 27-370 S38T/D39E/D247S) with S61Y, A156D, F250W, L322Q
Description: as §1

PotF/D–E39D–Y87S–F88Y = target: T3, PotF/D–E39D–Y87S–F88Y (Escherichia coli, UniProt P31133, A182D/D247S/F276W/F88Y/L348Q/S38T); assay: ITC, PotF/D–E39D–Y87S–F88Y; format: binding; settings: 293 K
T3 construct: without the N-terminal signal peptide; made in house; host or cells: E. coli BL21 (DE3)
T3 sequence (P31133 27-370 S38T/F88Y/A182D/D247S/F276W/L348Q): T1 sequence (P31133 27-370 S38T/D39E/D247S) with E13D, F62Y, A156D, F250W, L322Q
Description: as §1

PotD = settings: cited from earlier work
PotF/D–E39D–Y87S = target: T4, PotF/D–E39D–Y87S (Escherichia coli, UniProt P31133, A182D/D247S/F276W/L348Q/S38T); assay: ITC, PotF/D–E39D–Y87S; format: binding; settings: 293 K
T4 construct: without the N-terminal signal peptide; made in house; host or cells: E. coli BL21 (DE3)
T4 sequence (P31133 27-370 S38T/A182D/D247S/F276W/L348Q): T1 sequence (P31133 27-370 S38T/D39E/D247S) with E13D, A156D, F250W, L322Q
Description: as §1

PotF/D–E39D–F88A = target: T5, PotF/D–E39D–F88A (Escherichia coli, UniProt P31133, A182D/D247S/F276W/F88A/L348Q/S38T/S87Y); assay: ITC, PotF/D–E39D–F88A; format: binding; settings: 293 K
T5 construct: without the N-terminal signal peptide; made in house; host or cells: E. coli BL21 (DE3)
T5 sequence (P31133 27-370 S38T/S87Y/F88A/A182D/D247S/F276W/L348Q): T1 sequence (P31133 27-370 S38T/D39E/D247S) with E13D, S61Y, F62A, A156D, F250W, L322Q
Description: as §1

[1] = ITC, 50 mM Tris pH 8, 300 mM NaCl, biological triplicates

NCCCCN [PUT, putrescine]
KD (PotF_Prox): abolishes association

NCCCCNCCCN [SPD, spermidine]
n (PotF/D; ITC binding stoichiometry): 0.94 ± 0.02
ΔG (PotF/D; ITC): -5.94 ± 0.04 kcal/mol
ΔH (PotF/D; ITC): -9.30 ± 0.20 kcal/mol
−TΔS (PotF/D; ITC): 3.36 ± 0.24 kcal/mol
Kd (PotF/D; [1]): ~37 µM and 37.3 µM
n (PotF/D–E39D–Y87S–F88Y; ITC binding stoichiometry): 0.99 ± 0.02
ΔG (PotF/D–E39D–Y87S–F88Y; ITC): -7.09 ± 0.15 kcal/mol
ΔH (PotF/D–E39D–Y87S–F88Y; ITC): -7.81 ± 0.21 kcal/mol
−TΔS (PotF/D–E39D–Y87S–F88Y; ITC): 0.71 ± 0.32 kcal/mol
Kd (PotF/D–E39D–Y87S–F88Y; [1]): ~5.3 µM and 5.3 µM and 5.32 µM
ΔG (PotD; ITC): -11.13 ± 0.12 kcal/mol
ΔH (PotD; ITC): -16.40 ± 1.4 kcal/mol
−TΔS (PotD; ITC): 5.24 ± 1.39 kcal/mol
Kd (PotD): ~0.006 µM
n (PotF/D–E39D–Y87S; ITC binding stoichiometry): 0.98 ± 0.01
ΔG (PotF/D–E39D–Y87S; ITC): -6.74 ± 0.06 kcal/mol
ΔH (PotF/D–E39D–Y87S; ITC): -6.56 ± 0.13 kcal/mol
−TΔS (PotF/D–E39D–Y87S; ITC): -0.18 ± 0.19 kcal/mol
Kd (PotF/D–E39D–Y87S; [1]): 9.4 µM and 9.44 µM
n (PotF/D–E39D–F88A; ITC binding stoichiometry): 0.98 ± 0.03
ΔG (PotF/D–E39D–F88A; ITC): -6.73 ± 0.03 kcal/mol
ΔH (PotF/D–E39D–F88A; ITC): -12.22 ± 0.35 kcal/mol
−TΔS (PotF/D–E39D–F88A; ITC): 5.49 ± 0.36 kcal/mol
Kd (PotF/D–E39D–F88A; [1]): 9.6 ± 0.54 µM
